pEC50, pIC50: −log10 of the molar value. The source made the active and inactive calls. The rule behind the calls is not given here.
What was measured:
[1] = biological target: T1, C-C chemokine receptor type 2 (Homo sapiens, UniProt P41597); test: Displacement of [3H]INCB3344 from human CCR2 expressed in human U2OS cells at 1 uM after 120 mins by scintillation spectrometric analysis relative to control; format: cell-based
Target sequence in this assay (P41597 whole entry, looked up): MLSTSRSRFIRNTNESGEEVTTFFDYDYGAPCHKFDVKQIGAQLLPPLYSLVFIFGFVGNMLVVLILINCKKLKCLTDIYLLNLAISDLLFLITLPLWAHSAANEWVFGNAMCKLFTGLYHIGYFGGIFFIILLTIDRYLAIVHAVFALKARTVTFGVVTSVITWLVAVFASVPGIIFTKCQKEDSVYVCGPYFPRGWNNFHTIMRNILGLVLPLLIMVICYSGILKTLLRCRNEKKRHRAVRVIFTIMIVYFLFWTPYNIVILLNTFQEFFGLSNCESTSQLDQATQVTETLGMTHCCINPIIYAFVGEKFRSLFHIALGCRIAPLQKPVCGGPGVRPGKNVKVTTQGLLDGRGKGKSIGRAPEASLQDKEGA

[2] = biological target: T2, C-C chemokine receptor type 5 (Homo sapiens, UniProt P51681); test: Displacement of [3H]TAK-779 from CCR5 (unknown origin) at 1 uM after 120 mins by scintillation counting method relative to control
Target sequence in this assay (P51681 whole entry, looked up): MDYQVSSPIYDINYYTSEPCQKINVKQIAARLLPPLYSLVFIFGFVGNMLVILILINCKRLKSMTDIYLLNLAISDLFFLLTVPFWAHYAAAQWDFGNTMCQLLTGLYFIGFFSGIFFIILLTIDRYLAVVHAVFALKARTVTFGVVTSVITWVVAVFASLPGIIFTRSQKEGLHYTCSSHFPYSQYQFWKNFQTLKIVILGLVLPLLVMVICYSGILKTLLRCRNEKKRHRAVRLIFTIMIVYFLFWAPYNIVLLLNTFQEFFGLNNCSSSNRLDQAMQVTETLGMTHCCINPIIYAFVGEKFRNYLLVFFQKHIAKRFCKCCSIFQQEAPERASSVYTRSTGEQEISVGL

[3] = biological target: T2, C-C chemokine receptor type 5; test: Positive allosteric modulation of human CCR5 expressed in HEK293T cells co-expressing CAMYEL assessed as increase in CCL4-induced inhibition of forskolin-stimulated cAMP accumulation after 10 mins by BRET assay; format: functional, cell-based, HEK-293T
Target sequence in this assay (P51681 whole entry): as the sequence (P51681 whole entry, looked up) above

[4] = biological target: T1, C-C chemokine receptor type 2; test: Antagonist activity at human CCR2b expressed in human Chem1 cells assessed as inhibition of human recombinant CCL2 induced Ca2+ mobilization preincubated for 10 mins followed by CCL2 induction measured every sec for 120 secs by Fluo-4-AM dye-based fluorescence assay; format: functional, cell-based
Target sequence in this assay (P41597 whole entry): as the sequence (P41597 whole entry, looked up) above

[5] = biological target: T2, C-C chemokine receptor type 5; test: Negative allosteric modulation of human CCR5 expressed in HEK293T cells co-expressing CAMYEL assessed as decrease in CCL5-induced inhibition of forskolin-stimulated cAMP accumulation after 10 mins by BRET assay; format: functional, cell-based; conditions: HEK-293T
Target sequence in this assay (P51681 whole entry, looked up): as the sequence (P51681 whole entry, looked up) above

[6] = biological target: T2, C-C chemokine receptor type 5; test: Negative allosteric modulation of human CCR5 expressed in HEK293T cells co-expressing CAMYEL assessed as decrease in CCL4-induced inhibition of forskolin-stimulated cAMP accumulation after 10 mins by BRET assay; format: functional, cell-based; conditions: HEK-293T
Target sequence in this assay (P51681 whole entry, looked up): as above

[7] = biological target: T1, C-C chemokine receptor type 2; test: Displacement of [3H]INCB3344 from human CCR2 expressed in human U2OS cells after 120 mins by scintillation spectrometric analysis; format: cell-based
Target sequence in this assay (P41597 whole entry): as the sequence (P41597 whole entry, looked up) above

[8] = biological target: T2, C-C chemokine receptor type 5; test: Displacement of [3H]TAK-779 from CCR5 (unknown origin) after 120 mins by scintillation counting method
Target sequence in this assay (P51681 whole entry): as the sequence (P51681 whole entry, looked up) above

[9] = biological target: T2, C-C chemokine receptor type 5; test: Positive allosteric modulation of human CCR5 expressed in HEK293T cells co-expressing CAMYEL assessed as increase in CCL5-induced inhibition of forskolin-stimulated cAMP accumulation after 10 mins by BRET assay; format: functional, cell-based; conditions: HEK-293T
Target sequence in this assay (P51681 whole entry, looked up): as above

[10] = biological target: T2, C-C chemokine receptor type 5; test: Intrinsic agonist activity at human CCR5 expressed in HEK293T cells co-expressing CAMYEL assessed as inhibition of forskolin-stimulated cAMP accumulation after 10 mins by BRET assay; format: functional, cell-based; conditions: HEK-293T
Target sequence in this assay (P51681 whole entry, looked up): as above

Row | inhibition [1] [%] | inhibition [2] [%] | pEC50 [3] | pIC50 [4] | Activity [5] | Activity [6] | pIC50 [7] | pIC50 [8] | Activity [9] | Activity [10] | Structure (SMILES)
1 | 15 | 0 | < 8.00 |  |  |  |  |  |  |  | CC(=O)Nc1ccc2c(c1)C(=O)N(CC(C)C)CC(C(=O)Nc1ccc(CN(C)C3CCOCC3)cc1)=C2
2 |  | 0 | < 8.00 | 6.85 | Active | Active | 6.41 |  |  |  | Cc1ccc(-c2ccc3c(c2)C=C(C(=O)Nc2ccc(CN(C)C4CCOCC4)cc2)CN(CC(C)C)C3=O)cc1
3 | 9 | 0 | < 8.00 |  |  |  |  |  |  |  | CC(C)CN1CC(C(=O)Nc2ccc(CN(C)C3CCOCC3)cc2)=Cc2ccc([N+](=O)[O-])cc2C1=O
4 | 18 | 0 | < 8.00 |  |  |  |  |  |  |  | CC(C)CN1CC(C(=O)Nc2ccc(CN(C)C3CCOCC3)cc2)=Cc2ccc(NS(C)(=O)=O)cc2C1=O
5 | 18 | 0 | < 8.00 |  |  |  |  |  |  |  | CC(C)CN1CC(C(=O)Nc2ccc(S(=O)(=O)Nc3nccs3)cc2)=Cc2ccccc2C1=O
6 |  |  | 8.15 |  |  |  |  | 8.70 |  |  | Cc1ccc(-c2ccc3c(c2)C=C(C(=O)Nc2ccc(C[N+](C)(C)C4CCOCC4)cc2)CCC3)cc1
7 | 0 | 0 | < 8.00 | 5.52 |  |  |  |  |  |  | Cc1ccc(-c2ccc3c(c2)C(=O)N(CC(C)C)CC(C(=O)Nc2ccc(CN(C)C4CCOCC4)cc2)=C3)cc1
8 | 18 | 0 | 5.61 |  |  |  |  |  | inactive | inactive | CC(C)CN1CC(C(=O)Nc2ccc(CN(C)C3CCOCC3)cc2)=Cc2ccccc2C1=O
9 | 6 | 0 | < 8.00 |  |  |  |  |  |  |  | CC(C)CN1CC(C(=O)Nc2ccc(CN(C)C3CCOCC3)cc2)=Cc2c(cccc2[N+](=O)[O-])C1=O

From ChEMBL document CHEMBL4033672, “Synthesis and biological evaluation of chemokine receptor ligands with 2-benzazepine scaffold” (Eur J Med Chem, 2017)
